The target of one assay is T1, GFP-PARP2 (Homo sapiens, UniProt Q9UGN5).
T1 construct: expressed in transfected cells; host or cells: U2OS
The assay can be described thus: Live-cell protein trapping assay: GFP-PARP2 at laser micro-irradiation sites. Format: cell-based. Conditions: U2OS cells. The source says: The disclosed method is used to analyze protein trapping induced by compounds. Live-cell imaging allows monitoring of the accumulation of at least one protein, e.g. which is detectably labelled, e.g. fluorophore-tagged, at the induced DNA lesions over time. Time0 (t0) hereby describes the timepoint before induction of DNA damage by irradiation. Thus, the relative enrichment of the at least one protein at DNA lesions within the imaged time frame (from t0 to tEND) can be quantified. This allows to the analysis of the recruitment and retention (protein trapping) kinetics of the at least one protein, e.g. which is detectably labelled, e.g. fluorophore-tagged, at DNA lesions. Suitably, as a first step the accumulation and/or residence time of a protein, e.g. which is detectably labelled, e.g. fluorophore-tagged, is measured in the absence of a test compound (control). The optimal imaging time is hereby determined by the time in which the majority of the protein has released from the damage site, indicated by the decrease of signal, e.g. fluorescent signal, at the DNA lesion (see FIG. 2A). Subsequently, the accumulation and/or residence time of the protein, e.g. which is detectably labelled, e.g. fluorophore-tagged, may be determined in the presence of at least one test compound. […] Using this method, we examined the trapping of GFP-tagged ALC1 in the presence of ALCi-1 compared to a DMSO control.
Eukaryotic cells were seeded onto 4/8-well Nunc Lab-Tek chambers (Thermo Fisher Scientific) in the corresponding cell culture medium, cultured over night at 37° C. and transfected with fluorophore-tagged protein plasmids using XtremeGENE HP DNA transfection reagent (Sigma). […]
The drug- and control-master-mixes were prepared in Leibovitz's L-15 media (+10% FBS). […] Therefore, the optimal imaging time for the protein of interest was determined by investigation of the trapping and release under control conditions (no treatment). […] Subsequently, the fluorophore-tagged protein was measured in the presence of at least one compound. […]

The target of another assay is PARP1-GFP (Homo sapiens, UniProt P09874). Conditions: wild-type U2OS cells, 10 μM for 1 h, 355 nm laser, 30 minutes, compared to DMSO. The source says:
The disclosed method is used to analyze protein trapping induced by compounds. Live-cell imaging allows monitoring of the accumulation of at least one protein, e.g. which is detectably labelled, e.g. fluorophore-tagged, at the induced DNA lesions over time. Time0 (t0) hereby describes the timepoint before induction of DNA damage by irradiation. Thus, the relative enrichment of the at least one protein at DNA lesions within the imaged time frame (from t0 to tEND) can be quantified. This allows to the analysis of the recruitment and retention (protein trapping) kinetics of the at least one protein, e.g. which is detectably labelled, e.g. fluorophore-tagged, at DNA lesions. Suitably, as a first step the accumulation and/or residence time of a protein, e.g. which is detectably labelled, e.g. fluorophore-tagged, is measured in the absence of a test compound (control). The optimal imaging time is hereby determined by the time in which the majority of the protein has released from the damage site, indicated by the decrease of signal, e.g. fluorescent signal, at the DNA lesion (see FIG. 2A). Subsequently, the accumulation and/or residence time of the protein, e.g. which is detectably labelled, e.g. fluorophore-tagged, may be determined in the presence of at least one test compound. […]

“Also recorded” adds a separate entry of the source.

T1 sequence (Q9UGN5 whole entry): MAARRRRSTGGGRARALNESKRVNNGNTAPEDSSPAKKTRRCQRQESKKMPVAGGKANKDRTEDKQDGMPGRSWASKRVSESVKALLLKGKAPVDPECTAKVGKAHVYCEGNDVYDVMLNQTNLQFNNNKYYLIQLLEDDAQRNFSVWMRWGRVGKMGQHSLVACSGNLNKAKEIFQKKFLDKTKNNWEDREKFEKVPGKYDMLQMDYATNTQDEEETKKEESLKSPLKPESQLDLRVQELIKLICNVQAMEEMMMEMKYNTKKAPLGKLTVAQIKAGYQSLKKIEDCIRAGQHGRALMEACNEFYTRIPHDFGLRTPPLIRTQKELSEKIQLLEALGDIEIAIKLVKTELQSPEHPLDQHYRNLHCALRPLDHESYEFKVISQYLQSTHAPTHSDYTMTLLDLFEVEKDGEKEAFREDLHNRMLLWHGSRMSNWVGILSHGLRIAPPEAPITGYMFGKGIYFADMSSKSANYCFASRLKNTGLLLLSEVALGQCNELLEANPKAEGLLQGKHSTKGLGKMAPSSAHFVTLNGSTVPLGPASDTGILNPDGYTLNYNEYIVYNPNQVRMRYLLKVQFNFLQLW
Sequence of PARP1-GFP (P09874 whole entry): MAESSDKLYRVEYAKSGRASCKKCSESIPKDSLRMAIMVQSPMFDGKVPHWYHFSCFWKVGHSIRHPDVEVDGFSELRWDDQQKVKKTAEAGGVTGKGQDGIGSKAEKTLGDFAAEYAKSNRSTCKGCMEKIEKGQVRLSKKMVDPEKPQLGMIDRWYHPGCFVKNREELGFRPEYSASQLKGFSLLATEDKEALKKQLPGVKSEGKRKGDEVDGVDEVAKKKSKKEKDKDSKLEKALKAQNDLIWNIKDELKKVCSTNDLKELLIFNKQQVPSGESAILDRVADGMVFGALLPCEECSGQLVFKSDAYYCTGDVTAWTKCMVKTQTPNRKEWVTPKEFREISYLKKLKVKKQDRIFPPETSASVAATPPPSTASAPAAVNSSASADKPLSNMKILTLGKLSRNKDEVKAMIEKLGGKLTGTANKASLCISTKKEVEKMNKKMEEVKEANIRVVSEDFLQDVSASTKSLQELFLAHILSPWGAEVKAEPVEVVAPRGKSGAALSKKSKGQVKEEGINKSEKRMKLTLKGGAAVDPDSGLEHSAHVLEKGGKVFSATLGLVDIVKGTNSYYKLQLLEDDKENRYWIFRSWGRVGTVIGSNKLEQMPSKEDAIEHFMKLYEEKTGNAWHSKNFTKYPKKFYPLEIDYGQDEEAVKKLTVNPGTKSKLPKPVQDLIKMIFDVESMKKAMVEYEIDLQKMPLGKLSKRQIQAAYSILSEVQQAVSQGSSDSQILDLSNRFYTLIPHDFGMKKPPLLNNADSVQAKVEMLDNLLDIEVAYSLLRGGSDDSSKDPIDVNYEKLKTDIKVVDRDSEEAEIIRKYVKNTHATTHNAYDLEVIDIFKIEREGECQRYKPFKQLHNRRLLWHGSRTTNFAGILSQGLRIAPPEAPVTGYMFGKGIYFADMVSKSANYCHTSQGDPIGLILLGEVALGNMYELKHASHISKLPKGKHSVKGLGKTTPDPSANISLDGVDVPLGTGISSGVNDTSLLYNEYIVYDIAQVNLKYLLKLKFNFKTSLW

For the molecule `Cn1ncnc1[C@H]1c2n[nH]c(=O)c3cc(F)cc(c23)N[C@@H]1c1ccc(F)cc1` [talazoparib], the “retention of PARP2 at induced damage sites (PARP trapping)” value on GFP-PARP2 (talazoparib 100 nM, 10% 355 nm laser, 15 minutes, vs absence of PARPi) was “enhanced retention of PARP2”.

On to `C[C@]1(c2nc3c(C(N)=O)cccc3[nH]2)CCCN1` [veliparib], for which the “recruitment of PARP2 to the damage site” value at GFP-PARP2 (veliparib 10 μM, 10% 355 nm laser, 15 minutes, vs absence of PARPi) is recorded as “less recruitment of PARP2; also recorded: overall less PARP2 recruitment”. Besides, the “PARP2 trapping at DNA lesions” value at GFP-PARP2 (veliparib, compared to DMSO-only control) is on record as “only weak trapping”. Moreover, the “retention of PARP1 at DNA damage sites (PARP1-trapping)” value at PARP1-GFP is listed as “enhanced retention of PARP1”.

Values taken from patent US20240102994A1, “Method to Evaluate the Capability of Compounds on the Trapping of Proteins” (Eisbach Bio GmbH, priority 2020, published 2024).
